This is an account of results in ChEMBL document CHEMBL5506069, “A Unique Hybridization Route to Access Hydrazylnaphthalimidols as Novel Structural Scaffolds of Multitargeting Broad-Spectrum Antifungal Candidates” (J Med Chem, 2024).

≈ marks a conversion by molar mass, not a printed value.

Holding throughout (assay type): functional
The test system of assay [1] is Candida albicans. Briefly: Antifungal activity against Candida albicans assessed as inhibition of fungal growth incubated for 24 hrs by CLSI based microbroth dilution method.
Assay [2] relates to Candida albicans. In words: Antifungal activity against Candida albicans ATCC 90023 assessed as inhibition of fungal growth incubated for 24 hrs by CLSI based microbroth dilution method.
Assay [3] has as its system Candida tropicalis. Briefly: Antifungal activity against Candida tropicalis assessed as inhibition of fungal growth incubated for 24 hrs by CLSI based microbroth dilution method.
In assay [4] the test system is Aspergillus fumigatus. Briefly: Antifungal activity against Aspergillus fumigatus assessed as inhibition of fungal growth incubated for 24 hrs by CLSI based microbroth dilution method.
The subject of assay [5] is Candida parapsilosis. Briefly: Antifungal activity against Candida parapsilosis ATCC 22019 assessed as inhibition of fungal growth incubated for 24 hrs by CLSI based microbroth dilution method. The note with it: Lodderomyces parapsilosis.

`CCCN1C(=O)c2cccc3c(N/N=C(\C)Cn4c([N+](=O)[O-])cnc4C)ccc(c23)C1=O`: the MIC in assay [1], in assay [2], in assay [3], in assay [4] and in assay [5] was 1180 µM (≈ 512 µg/mL) each time.

In the case of `O=C1c2cccc3c(N/N=C/c4c[nH]cn4)ccc(c23)C(=O)N1CCO`, the MIC in assay [1] came out at 183 µM (≈ 63.9 µg/mL); in assay [2], 92 µM (≈ 32.1 µg/mL); in assay [3] it was 46 µM (≈ 16.1 µg/mL); in assay [4], 183 µM (≈ 63.9 µg/mL); in assay [5], 23 µM (≈ 8.04 µg/mL).

In the case of `CCCCCCCn1c(CCCC)nc(Cl)c1/C=N/Nc1ccc2c3c(cccc13)C(=O)N(CCO)C2=O`, the MIC in assay [1] came out at 119 µM (≈ 64 µg/mL); in assay [2] it was 119 µM (≈ 64 µg/mL); in assay [3] it was 60 µM (≈ 32.3 µg/mL); in assay [4], 119 µM (≈ 64 µg/mL); in assay [5], 238 µM (≈ 128 µg/mL).

Consider `CCCCc1nc(Cl)c(/C=N/Nc2ccc3c4c(cccc24)C(=O)N(CCO)C3=O)n1Cc1ccc(Cl)cc1`, for which the MIC in assay [1] turned out to be 57 µM (≈ 32.2 µg/mL); in assay [2] it was 7 µM (≈ 3.95 µg/mL); in assay [3] it was 28 µM (≈ 15.8 µg/mL); in assay [4], 57 µM (≈ 32.2 µg/mL); in assay [5] it was 57 µM (≈ 32.2 µg/mL).

As to `O=C1c2cccc3c(N/N=C/c4c(Cl)cccc4Cl)ccc(c23)C(=O)N1CCO`, the MIC in assay [1] is 150 µM (≈ 64.2 µg/mL); in assay [2], 300 µM (≈ 128 µg/mL); in assay [3] it was 150 µM (≈ 64.2 µg/mL); in assay [4], 300 µM (≈ 128 µg/mL); in assay [5], 599 µM (≈ 257 µg/mL).

For `O=C1c2cccc3c(N/N=C/c4cc[nH]c4)ccc(c23)C(=O)N1CCO`, the MIC stood at 367 µM (≈ 128 µg/mL) in assay [1]; 367 µM (≈ 128 µg/mL) in assay [2]; 23 µM (≈ 8.01 µg/mL) in assay [3]; 92 µM (≈ 32 µg/mL) in assay [4]; 46 µM (≈ 16 µg/mL) in assay [5].

Turning to `CCCCc1nc(Cl)c(/C=N/Nc2ccc3c4c(cccc24)C(=O)N(CCO)C3=O)n1Cc1ccc([N+](=O)[O-])cc1`, the MIC in assay [1] came out at 111 µM (≈ 63.8 µg/mL); in assay [2] it was 7 µM (≈ 4.03 µg/mL); in assay [3] it was 28 µM (≈ 16.1 µg/mL); in assay [4], 111 µM (≈ 63.8 µg/mL); in assay [5], 14 µM (≈ 8.05 µg/mL).

With `CCN1C(=O)c2cccc3c(N/N=C/c4ccc([N+](=O)[O-])o4)ccc(c23)C1=O`, the MIC in assay [1] was 42 µM (≈ 15.9 µg/mL); in assay [2], 84 µM (≈ 31.8 µg/mL); in assay [3], 84 µM (≈ 31.8 µg/mL); in assay [4], 338 µM (≈ 128 µg/mL); in assay [5] it was 168 µM (≈ 63.6 µg/mL).

Consider `CCCCc1nc(Cl)c(/C=N/Nc2ccc3c4c(cccc24)C(=O)N(CCO)C3=O)n1CC1CCCCC1`, for which the MIC in assay [1] is 120 µM (≈ 64.3 µg/mL); in assay [2], 7 µM (≈ 3.75 µg/mL); in assay [3] it was 15 µM (≈ 8.04 µg/mL); in assay [4], 2 µM (≈ 1.07 µg/mL); in assay [5] it was 60 µM (≈ 32.2 µg/mL).

In the case of `Cc1ccc(/C=N/Nc2ccc3c4c(cccc24)C(=O)N(CCO)C3=O)o1`, the MIC in assay [1] amounted to 42 µM (≈ 15.3 µg/mL); in assay [2], 84 µM (≈ 30.5 µg/mL); in assay [3], 84 µM (≈ 30.5 µg/mL); in assay [4], 338 µM (≈ 123 µg/mL); in assay [5] it was 169 µM (≈ 61.4 µg/mL).

In the case of `O=C1c2cccc3c(N/N=C/C=C/c4ccc([N+](=O)[O-])o4)ccc(c23)C(=O)N1CCO`, the MIC was 9 µM (≈ 3.78 µg/mL) in assay [1]; 38 µM (≈ 16 µg/mL) in assay [2]; 38 µM (≈ 16 µg/mL) in assay [3]; 76 µM (≈ 31.9 µg/mL) in assay [4]; 152 µM (≈ 63.9 µg/mL) in assay [5].

Regarding `O=C1c2cccc3c(N/N=C/c4ccc(CO)o4)ccc(c23)C(=O)N1CCO`, the MIC turned out to be 21 µM (≈ 7.97 µg/mL) in assay [1]; 5 µM (≈ 1.9 µg/mL) in assay [2]; 5 µM (≈ 1.9 µg/mL) in assay [3]; 10 µM (≈ 3.79 µg/mL) in assay [4]; 21 µM (≈ 7.97 µg/mL) in assay [5].

Take `CCCCc1nc(Cl)c(/C=N/Nc2ccc3c4c(cccc24)C(=O)N(CCO)C3=O)n1Cc1ccc(Cl)cc1Cl`: the MIC in assay [1] worked out at 54 µM (≈ 32.3 µg/mL); in assay [2] it was 3 µM (≈ 1.8 µg/mL); in assay [3], 54 µM (≈ 32.3 µg/mL); in assay [4], 214 µM (≈ 128 µg/mL); in assay [5], 13 µM (≈ 7.79 µg/mL).

`O=C1c2cccc3c(N/N=C/c4cccc(O)c4)ccc(c23)C(=O)N1CCO`: the MIC was 341 µM (≈ 128 µg/mL) in assay [1]; 341 µM (≈ 128 µg/mL) in assay [2]; 682 µM (≈ 256 µg/mL) in assay [3]; 171 µM (≈ 64.2 µg/mL) in assay [4]; 341 µM (≈ 128 µg/mL) in assay [5].
